Assay results reported in ChEMBL document CHEMBL1201862, “PubChem BioAssay data set” (2004).
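Interpolation was linear, between the two tested concentrations surrounding the appropriate level; five concentrations were tested over 48 hours in 96-well plates. Abbreviation: GI50, concentration required for 50% inhibition of growth.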 The source made the active and inactive calls. No stated cut-off is given here; in the data, active = GI50 up to about 1.1 µM and inactive = higher. Where a SMILES comes first, the peptide text is derived from it.

Tests used:
Test in all cases: inhibition of tumour cell growth, NCI panel, 48 h
[1] = tested on: T47D
[2] = tested on: HL-60
[3] = tested on: NCI-H23
[4] = tested on: NCI-H226
[5] = tested on: UACC-257
[6] = tested on: BT-549
[7] = tested on: SF-295
[8] = tested on: SF-268
[9] = tested on: HCT-116
[10] = tested on: RPMI-8226
[11] = tested on: OVCAR-8
[12] = tested on: U-251
[13] = tested on: Hs-578T
[14] = tested on: MCF7
[15] = tested on: A549
[16] = tested on: HOP-92
[17] = tested on: CCRF-CEM
[18] = tested on: PC-3
[19] = tested on: SN12C
[20] = tested on: HOP-62
[21] = tested on: CAKI-1
[22] = tested on: DU-145
[23] = tested on: SK-OV-3
[24] = tested on: MDA-N
[25] = tested on: OVCAR-3
[26] = tested on: SF-539
[27] = tested on: A498
[28] = tested on: KM12
[29] = tested on: LOX IMVI
[30] = tested on: NCI/ADR-RES
[31] = tested on: OVCAR-5
[32] = tested on: SK-MEL-5
[33] = tested on: ACHN
[34] = tested on: 786-0
[35] = tested on: IGROV-1
[36] = tested on: MOLT-4
[37] = tested on: EKVX
[38] = tested on: Malme-3M
[39] = tested on: SR
[40] = tested on: HT-29
[41] = tested on: MDA-MB-435
[42] = tested on: SK-MEL-2
[43] = tested on: SNB-19
[44] = tested on: SK-MEL-28
[45] = tested on: OVCAR-4
[46] = tested on: NCI-H522
[47] = tested on: M14
[48] = tested on: UO-31
[49] = tested on: TK-10
[50] = tested on: SW-620
[51] = tested on: COLO 205
[52] = tested on: HCT-15
[53] = tested on: UACC-62
[54] = tested on: MDA-MB-231
[55] = tested on: HCC 2998
[56] = tested on: SNB-75
[57] = tested on: K562
[58] = tested on: NCI-H460

## CCC(C)C(NC(=O)C1CCCN1C(=O)C(CC(C)C)NC(=O)C(CC(C)C)NC(=O)C(N)CC(C)C)C(=O)NC(C(=O)NCC(=O)NC(CC(N)=O)C(=O)NC(CC(C)C)C(=O)NC(CC(C)C)C(=O)NC(CC(C)C)C(N)=O)C(C)C (stereo unspecified) (H-LLLPIVGNLLL-NH2; configuration not given here)
[1]
  GI50: > 50 µM (inactive)
[2]
  GI50: > 50 µM (inactive)
[3]
  GI50: > 50 µM (inactive)
[4]
  GI50: > 50 µM (inactive)
[5]
  GI50: > 50 µM (inactive)
[6]
  GI50: > 50 µM (inactive)
[7]
  GI50: > 50 µM (inactive)
[8]
  GI50: > 50 µM (inactive)
[9]
  GI50: > 50 µM (inactive)
[10]
  GI50: > 50 µM (inactive)
[11]
  GI50: > 50 µM (inactive)
[12]
  GI50: > 50 µM (inactive)
[13]
  GI50: > 50 µM (inactive)
[14]
  GI50: > 50 µM (inactive)
[15]
  GI50: > 50 µM (inactive)
[16]
  GI50: > 50 µM (inactive)
[17]
  GI50: > 50 µM (inactive)
[18]
  GI50: > 50 µM (inactive)
[19]
  GI50: > 50 µM (inactive)
[20]
  GI50: > 50 µM (inactive)
[21]
  GI50: > 50 µM (inactive)
[22]
  GI50: > 50 µM (inactive)
[23]
  GI50: > 50 µM (inactive)
[24]
  GI50: > 50 µM (inactive)
[25]
  GI50: > 50 µM (inactive)
[26]
  GI50: > 50 µM (inactive)
[27]
  GI50: > 50 µM (inactive)
[28]
  GI50: > 50 µM (inactive)
[29]
  GI50: > 50 µM (inactive)
[30]
  GI50: > 50 µM (inactive)
[31]
  GI50: > 50 µM (inactive)
[32]
  GI50: > 50 µM (inactive)
[33]
  GI50: > 50 µM (inactive)
[34]
  GI50: > 50 µM (inactive)
[35]
  GI50: > 50 µM (inactive)
[36]
  GI50: > 50 µM (inactive)
[37]
  GI50: > 50 µM (inactive)
[38]
  GI50: > 50 µM (inactive)
[39]
  GI50: > 50 µM (inactive)
[40]
  GI50: > 50 µM (inactive)
[41]
  GI50: > 50 µM (inactive)
[42]
  GI50: > 50 µM (inactive)
[43]
  GI50: > 50 µM (inactive)
[44]
  GI50: > 50 µM (inactive)
[45]
  GI50: > 50 µM (inactive)
[46]
  GI50: > 50 µM (inactive)
[47]
  GI50: > 50 µM (inactive)
[48]
  GI50: > 50 µM (inactive)
[49]
  GI50: > 50 µM (inactive)
[50]
  GI50: > 50 µM (inactive)
[51]
  GI50: > 50 µM (inactive)
[52]
  GI50: > 50 µM
[53]
  GI50: > 50 µM (inactive)
[54]
  GI50: > 50 µM (inactive)

## CC(=O)c1c2c(cc3c1CC1(Cc4cc5c(cc4C1=O)CCC5)C3)CCC2 (stereo unspecified)
[1]
  GI50: 8.91 µM (inactive)
[2]
  GI50: 7.21 µM (inactive)
[3]
  GI50: 30.9 µM (inactive)
[4]
  GI50: 34.3 µM (inactive)
[5]
  GI50: 13.2 µM (inactive)
[6]
  GI50: 27 µM (inactive)
[7]
  GI50: 42.5 µM (inactive)
[8]
  GI50: > 81.5 µM (inactive)
[9]
  GI50: 9.12 µM (inactive)
[10]
  GI50: 10.5 µM (inactive)
[11]
  GI50: 71.9 µM (inactive)
[12]
  GI50: > 77.1 µM (inactive)
[13]
  GI50: > 100 µM (inactive)
[14]
  GI50: 35.7 µM (inactive)
[55]
  GI50: 72.9 µM (inactive)
[15]
  GI50: 42.2 µM (inactive)
[17]
  GI50: 14.6 µM (inactive)
[18]
  GI50: 13.1 µM (inactive)
[19]
  GI50: > 61.4 µM (inactive)
[20]
  GI50: > 100 µM (inactive)
[21]
  GI50: 17.3 µM (inactive)
[22]
  GI50: > 72.3 µM (inactive)
[23]
  GI50: > 87.7 µM (inactive)
[24]
  GI50: > 87.1 µM (inactive)
[25]
  GI50: > 62.4 µM (inactive)
[26]
  GI50: > 100 µM (inactive)
[27]
  GI50: > 100 µM (inactive)
[28]
  GI50: 53.5 µM (inactive)
[56]
  GI50: > 78 µM (inactive)
[29]
  GI50: 38.3 µM (inactive)
[30]
  GI50: 22.5 µM (inactive)
[31]
  GI50: > 100 µM (inactive)
[57]
  GI50: 14 µM (inactive)
[32]
  GI50: 12.1 µM (inactive)
[33]
  GI50: > 68.7 µM (inactive)
[34]
  GI50: > 54.5 µM (inactive)
[35]
  GI50: > 100 µM (inactive)
[36]
  GI50: 4.95 µM (inactive)
[37]
  GI50: 36.1 µM (inactive)
[38]
  GI50: 39.1 µM (inactive)
[39]
  GI50: 6.64 µM (inactive)
[58]
  GI50: 42.6 µM (inactive)
[40]
  GI50: 54.2 µM (inactive)
[41]
  GI50: 48.9 µM (inactive)
[42]
  GI50: 79.8 µM (inactive)
[43]
  GI50: > 100 µM (inactive)
[44]
  GI50: > 100 µM (inactive)
[45]
  GI50: 38.5 µM (inactive)
[46]
  GI50: 22.2 µM (inactive)
[47]
  GI50: > 68.1 µM (inactive)
[48]
  GI50: 36.9 µM (inactive)
[49]
  GI50: > 66.1 µM (inactive)
[50]
  GI50: 85.5 µM (inactive)
[51]
  GI50: 64.6 µM (inactive)
[52]
  GI50: 63 µM
[53]
  GI50: > 100 µM (inactive)
[54]
  GI50: 40.2 µM (inactive)
